{
  "source": "patent US10888092B2",
  "about": "“Ether amines for enhanced sporicidal performance” (Ecolab USA Inc., priority 2016, dated 2021)",
  "key": {"[1]": {"test_system": "spores", "assay": "Peracid comparison, ASTM test on fabric swatches (Example 7)", "format": "cell-based", "settings": "TABLE 9; peracid 200 ppm alone; 10 min at 50° C.", "method": "(§1) Various ether amines were tested for their efficiency in eradicating bacterial spores from fabric swatches. The fabric swatches were treated according to ASTM protocol for evaluating laundry sanitizers and disinfectants (ASTM E2274-09). The ASTM protocol provides more realistic conditions for laundering textiles, where the tested textiles are imbedded within a bundle of fabrics to mimic the ability of the composition to penetrate the fabric with less exposure to the wash solution.\nThe use of different peracids was tested. Fabric swatches were treated using the ASTM test described in Example 5. Part I was prepared with 100 ppm ether amine (DA-1618). Part II was prepared with 200 ppm of peroxyacetic acid (“POAA”) or peroxyoctanoic acid (“POOA”). When both Part I and Part II were used, the chemicals were added simultaneously. The exposure time was 10 min at 50° C."}, "[2]": {"test_system": "C. Diff. AATCC 43598", "assay": "Fabric swatches, consecutive vs. simultaneous treatment (Example 4)", "format": "cell-based, Clostridium difficile", "settings": "TABLE 6, ether amine 0 ppm 10 min, peracid 300 ppm 5 minutes", "method": "(§2) Cotton fabric swatches (5 mm×5 mm) were inoculated with C. Diff. AATCC 43598 at 35° C. for 48 hours. After inoculation, the swatches were treated with a first solution comprising part I of the composition at 50° C. for a first exposure time; removed from the first solution with sterile forceps and immediately transferred into a second solution comprising part II of the composition for a second exposure time. In comparative treatments, the solutions included only water. After treatment, the number of surviving spores was evaluated, and the log reduction of spores was compared to the comparative treatment (water only).\nConsecutive and simultaneous treatment with low concentration (100 ppm) of ether amine and peracetic acid was tested on fabric squares. The fabric squares were treated as in Example 1 with treatment times of 10 min (part I) and 5 minutes (part II), except with the simultaneous treatment, where ether amine and peracid were mixed prior to treatment and the exposure time was 5 minutes."}, "[3]": {"test_system": "bacterial spores", "assay": "Fabric swatches (ASTM E2274-09 protocol), simultaneous treatment (Example 5)", "format": "cell-based", "settings": "TABLE 7, exposure 10 minutes", "method": "as §1\nThree different ether amine solutions were tested: DA-1214 (octyl/decyloxypropyl-1,3-diaminopropane), DA-1618 (dodecylketradecyloxypropyl-1,3-diaminopropane), and PA-14 (isodecyloxypropyl amine). Part I and Part II were both added together at the start of the experiment for a combined exposure time of 10 minutes. The solutions were made into deionized water as described in Example 1, with the pH adjusted to 9.0 by glycolic acid. However, PA-14 was already neutralized to pH 7 with sodium acetate. The log reduction of spores was measured in the wash solution and on the fabric swatch. The reduction of spores was compared to number of spores in the baseline treatment (water only)."}, "[4]": {"test_system": "C. Diff. AATCC 43598", "assay": "Glass surface, consecutive treatment (Example 2)", "format": "cell-based, Clostridium difficile", "settings": "TABLE 4A, glass squares, ether amine 0 ppm 10 min", "method": "as §2\n(§3) The treatment described above for Example 1 was applied to glass squares (5 mm×5 mm) in a first part of the experiment, where the first exposure time was 10 minutes (part I) and the second exposure time was 5 minutes (part II). In a second part of the experiment, the ether amine and peracid were mixed together prior to treatment, and the exposure time was 15 minutes. Results of the first part of the experiment are shown in TABLE 4A, and of the second part of the experiment in TABLE 4B."}, "[5]": {"test_system": "C. Diff. AATCC 43598", "assay": "Fabric swatches, consecutive treatment, spore log reduction (Example 1)", "format": "cell-based, Clostridium difficile", "settings": "ether amine 0 ppm 10 min, 50° C.", "method": "Aqueous solutions of ether amine (Part I) and peracid (Part II) were prepared. Ether amine (octyl/decyloxypropyl-1,3-diaminopropane) solution (Part I) was prepared in deionized water and the pH was adjust to 9.0 using glycolic acid. TOMAMINE DA1214 was used as the ether amine. TOMAMINE DA1214 contains about 50-60% by weight of 1,3-Propanediamine, N-[3-(octylocy)propyl] and about 35-40% by weight of 1,3-Propanediamine, N-[3-(decylocy)propyl], and is available from Air Products and Chemicals, Inc., in Allentown, Pa. Peracid (peracetic acid) solution (Part II) was prepared from TSUNAMI° 100 (15 peracetic acid), available from Ecolab Inc., in St Paul, Minn.\nas §2\nIn Example 1, the first exposure time was 10 minutes (Part I) and the second exposure time was 5 minutes (Part II)."}, "[6]": {"test_system": "spores", "assay": "Fabric swatches (ASTM E2274), simultaneous treatment, hard water (Example 6)", "format": "cell-based", "settings": "TABLE 8; 500 ppm synthetic hard water, pH 10.5 prior to peracid addition; ether amine 0 ppm, peracid 200 ppm; 10 minutes", "method": "as §1\nTreatment of fabric swatches was tested in pH-adjusted hard water. The wash solution contained 500 ppm synthetic hard water, and the pH was adjusted to 10.5 with NaOH prior to peracid addition. After the addition of the peracid, pH of the wash solution was between 7-8. DA-1214 was used as the ether amine and peracetic acid as the peracid.\nThe log reduction of spores was measured in the wash solution and on the fabric swatch. The reduction of spores was compared to number of spores in the baseline treatment (water only). The combined treatment time was 10 minutes."}, "[7]": {"test_system": "C. Diff. AATCC 43598", "assay": "Glass surface, room temperature (Example 3)", "format": "cell-based, Clostridium difficile", "settings": "TABLE 5, room temperature (approximately 23° C.), ether amine 0 ppm 10 min, peracid 1000 ppm 5 min", "method": "as §2, §3\nThe treatment described in Example 2 was repeated at room temperature (“RT,” approximately 23° C.). Part I was prepared with ether amine DA-1214 and Part II with peroxyacetic acid. The exposure times were 10 min for Part I and 5 min for Part II."}, "[8]": {"settings": "ether amine 0 ppm, peracid 200 ppm"}, "[9]": {"settings": "TABLE 3A, then peracid 300 ppm 5 min"}, "[10]": {"settings": "TABLE 3A, then peracid 500 ppm 5 min"}, "[11]": {"settings": "TABLE 3C, then peracid 300 ppm 5 min"}, "[12]": {"settings": "ether amine 100 ppm, peracid 0 ppm"}},
  "note": "Marks after values point to notes of the source that are not given here.",
  "data": [
    {"smiles": "CCCCCCCC(=O)OO", "note": "[POOA, peroxyoctanoic acid]", "values": [
      {"measurement": "Carrier log reduction", "setting": "[1]", "value": 5.35},
      {"measurement": "Wash Solution Log Reduction", "setting": "[1]", "value": "6.00*"}
    ]},
    {"smiles": "CC(=O)OO", "note": "[peracid, peracetic acid]", "values": [
      {"measurement": "Log Reduction", "setting": "[2]", "value": 0.85},
      {"measurement": "Carrier log reduction", "setting": "[1]", "value": 1.78},
      {"measurement": "Wash Solution Log Reduction", "setting": "[1]", "value": 4.40},
      {"measurement": "Fabric Swatch Log Reduction", "setting": "[3]; [8]", "value": 2.65},
      {"measurement": "Wash Solution Log Reduction", "setting": "[3]; [8]", "value": 5.33},
      {"measurement": "Average Log", "setting": "[4]; then peracid 300 ppm 5 min", "value": 5.30},
      {"measurement": "Average Survivors", "setting": "[4]; then peracid 300 ppm 5 min", "value": "2.0 × 10^5"},
      {"measurement": "Log Reduction", "setting": "[4]; then peracid 300 ppm 5 min", "value": 1.36},
      {"measurement": "Average Log", "setting": "[4]; then peracid 500 ppm 5 min", "value": 3.38},
      {"measurement": "Average Survivors", "setting": "[4]; then peracid 500 ppm 5 min", "value": "2.4 × 10^3"},
      {"measurement": "Log Reduction", "setting": "[4]; then peracid 500 ppm 5 min", "value": 3.28},
      {"measurement": "Average Log", "setting": "[5]; [9]", "value": 5.36},
      {"measurement": "Average Survivors", "setting": "[5]; [9]", "value": "2.3 × 10^5"},
      {"measurement": "Log Reduction", "setting": "[5]; [9]", "value": 1.02},
      {"measurement": "Average Log", "setting": "[5]; [10]", "value": 3.23},
      {"measurement": "Average Survivors", "setting": "[5]; [10]", "value": "1.7 × 10^3"},
      {"measurement": "Log Reduction", "setting": "[5]; [10]", "value": 3.15},
      {"measurement": "Average Log", "setting": "[5]; [11]", "value": 5.04},
      {"measurement": "Average Survivors", "setting": "[5]; [11]", "value": "1.1 × 10^5"},
      {"measurement": "Log Reduction", "setting": "[5]; [11]", "value": 0.69},
      {"measurement": "Fabric Swatch Log Reduction", "setting": "[6]", "value": 3.01},
      {"measurement": "Wash Solution Log Reduction", "setting": "[6]", "value": 5.30},
      {"measurement": "Average Log", "setting": "[7]", "value": ">5.48"},
      {"measurement": "Average Survivors", "setting": "[7]", "value": ">300 × 10^3"},
      {"measurement": "Log Reduction", "setting": "[7]", "value": "<1.32"}
    ]},
    {"smiles": "CC(C)CCCCCCCOCCCN", "note": "[PA-14, isodecyloxypropyl amine]", "values": [
      {"measurement": "Fabric Swatch Log Reduction", "setting": "[3]; [12]", "value": 0.07},
      {"measurement": "Wash Solution Log Reduction", "setting": "[3]; [12]", "value": 0.17}
    ]}
  ]
}
